Assay results reported in US20200060276A1, “THIAZOLE COMPOUND AND HERBICIDE” (OAT Agrio Co., Ltd., priority 2017, published 2020).

How the values were obtained:
Format in all cases: in vivo
[1] = system: Echinochloa crus-galli (L.) P. Beauv. var. formosensis Ohwi; assay: Test for Herbicidal Effect in Flooding Treatment (#1), ECHDG; conditions: flooding treatment at seeding, dose 2 kg/ha, visual observation on day 21
In short: (§1)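 Visual scores from 0 (<10% inhibition) to 5 (≥90% or complete withering) were taken 21 days after treatment of glasshouse-grown plants. Seeds were sown in soil flooded for 24 h beforehand, and compound was applied dropwise onto the surface at 2 kg/ha as an acetone solution diluted in water with Tween 80.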

[2] = system: Echinochloa crus-galli (L.) P. Beauv. var. formosensis Ohwi; assay: Test for Herbicidal Effect in Flooding Treatment (#2), ECHDG at 2-2.5 leaf stage; conditions: flooding treatment at 2-2.5 leaf stage, dose 0.2 kg/ha, visual observation on day 21
In short: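 Scoring is a visual 0–5 scale of growth inhibition (0 below 10%, 5 at 90% or more or full withering), taken 21 days after treatment in a glasshouse. Dose was 0.2 kg/ha, applied as acetone/Tween 80 aqueous solution onto flooded soil once seedlings reached the 2–2.5 leaf stage.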

Cyperus microiria = assay: Test for Herbicidal Effect in Flooding Treatment (#1), CYMIC; conditions: flooding treatment at seeding, dose 2 kg/ha, visual observation on day 21
Description: (#1) Test for Herbicidal Effect in Flooding Treatment: Styrol cups each having an opening diameter of 8 cm (about 52 cm^2) were respectively filled with soil (45 ml) which had been passed through a sieve (2 mm). Water (about 115 ml) was mixed with the soil such that the soil was flooded. After the soil stood still for 24 hours, Monochoria vaginalis, Echinochloa crus-galli (L.) P. Beauv. var. formosensis Ohwi, Cyperus difformis (umbrella sedge), and Scirpus juncoides were seeded. Each of the compounds of the present invention was dissolved in acetone, and the obtained product was then diluted with water containing Tween 80®. Each of the resultant chemical solutions was dropped on the entire surface of an associated one of treatment sections, so that each section was treated with 1 ml of the respective chemical solution (a dose of 2 kg/ha). After the treatment, the plants were grown in a glasshouse. On day 21, a survey was conducted on the herbicidal activity by visual observation, and evaluation was made according to the following criteria. 0: Growth inhibition effect is less than 10%. 1: Growth inhibition effect is equal to or greater than 10%, and less than 30%. 2; Growth inhibition effect is equal to or greater than 30%, and less than 50%. 3: Growth inhibition effect equal to or greater than 50%, and less than 70%. 4: Growth inhibition effect is equal to or greater than 70%, and less than 90%. 5: Growth inhibition effect is equal to or greater than 90%, or complete withering is achieved. ECHDG=Echinochloa crus-galli (L.) P. Beauv. var. formosensis Ohwi, MONVA=Monochoria vaginalis, SCIJU=Scirpus juncoides, CYMIC=Cyperus microiria.

Scirpus juncoides = assay: Test for Herbicidal Effect in Flooding Treatment (#1), SCIJU; conditions: flooding treatment at seeding, dose 2 kg/ha, visual observation on day 21
In short: as §1

Row | Structure (SMILES) | ECHDG #1 herbicidal effect (growth inhibition grade) [1] | ECHDG (2-2.5L) #2 herbicidal effect (growth inhibition grade) [2] | CYMIC #1 herbicidal effect (growth inhibition grade) (Cyperus microiria) | SCIJU #1 herbicidal effect (growth inhibition grade) (Scirpus juncoides)
1 | N#Cc1ccc(CS(=O)(=O)c2ncc(Cl)s2)cc1 [Compound 1C-172] | 5 (Growth inhibition effect is equal to or greater than 90%, or complete withering is achieved) | 2 (Growth inhibition effect is equal to or greater than 30%, and less than 50%) | 5 (Growth inhibition effect is equal to or greater than 90%, or complete withering is achieved) | 5 (Growth inhibition effect is equal to or greater than 90%, or complete withering is achieved)
2 | CCOc1cc(C(F)(F)F)ccc1CS(=O)(=O)c1ncc(Cl)s1 [Compound 1C-14] | 5 (Growth inhibition effect is equal to or greater than 90%, or complete withering is achieved) | 4 (Growth inhibition effect is equal to or greater than 70%, and less than 90%) | 5 (Growth inhibition effect is equal to or greater than 90%, or complete withering is achieved) | 5 (Growth inhibition effect is equal to or greater than 90%, or complete withering is achieved)
3 | COc1cc(Cl)ccc1CS(=O)(=O)c1ncc(Cl)s1 [Compound 1C-4] | 5 (Growth inhibition effect is equal to or greater than 90%, or complete withering is achieved) | 5 (Growth inhibition effect is equal to or greater than 90%, or complete withering is achieved) | 5 (Growth inhibition effect is equal to or greater than 90%, or complete withering is achieved) | 5 (Growth inhibition effect is equal to or greater than 90%, or complete withering is achieved)
4 | COc1ccc(F)c(CS(=O)(=O)c2ncc(Cl)s2)c1Cl [Compound 1C-72] | 5 (Growth inhibition effect is equal to or greater than 90%, or complete withering is achieved) | 5 (Growth inhibition effect is equal to or greater than 90%, or complete withering is achieved) | 5 (Growth inhibition effect is equal to or greater than 90%, or complete withering is achieved) | 5 (Growth inhibition effect is equal to or greater than 90%, or complete withering is achieved)
5 | CCCCOc1cc(F)c(CS(=O)(=O)c2ncc(Cl)s2)c(F)c1 [Compound 1C-112] | 5 (Growth inhibition effect is equal to or greater than 90%, or complete withering is achieved) | 3 (Growth inhibition effect equal to or greater than 50%, and less than 70%) | 5 (Growth inhibition effect is equal to or greater than 90%, or complete withering is achieved) | 5 (Growth inhibition effect is equal to or greater than 90%, or complete withering is achieved)
6 | O=S(=O)(Cc1ccc(OC(F)F)cc1)c1ncc(Cl)s1 [Compound 1C-114] | 5 (Growth inhibition effect is equal to or greater than 90%, or complete withering is achieved) | 1 (Growth inhibition effect is equal to or greater than 10%, and less than 30%) | 5 (Growth inhibition effect is equal to or greater than 90%, or complete withering is achieved) | 5 (Growth inhibition effect is equal to or greater than 90%, or complete withering is achieved)
7 | CCOc1cc(F)ccc1CS(=O)(=O)c1ncc(Cl)s1 [Compound 1C-12] | 5 (Growth inhibition effect is equal to or greater than 90%, or complete withering is achieved) | 4 (Growth inhibition effect is equal to or greater than 70%, and less than 90%) | 5 (Growth inhibition effect is equal to or greater than 90%, or complete withering is achieved) | 5 (Growth inhibition effect is equal to or greater than 90%, or complete withering is achieved)
